Data from patent publication US10689343B2, “Inhibitors of tryptophan 2,3-dioxygenase” (NETHERLANDS TRANSLATIONAL RESEARCH CENTER B.V., priority 2016, dated 2020).
Several values for one entry are separate records, joined by “and”; a condition that tells them apart may be missing. Equal entries are not always repeated.

Experiments:
Recombinant TDO = molecular target: T1, Recombinant TDO (Homo sapiens, UniProt P48775); experiment: Biochemical assay for TDO (NFK GreenScreen); details: 50 nM TDO, 200 μM L-tryptophan
T1 construct: Recombinant TDO (Seegers, N., et al.) and all other assay components were diluted in TDO reaction buffer
T1 sequence (P48775 whole entry): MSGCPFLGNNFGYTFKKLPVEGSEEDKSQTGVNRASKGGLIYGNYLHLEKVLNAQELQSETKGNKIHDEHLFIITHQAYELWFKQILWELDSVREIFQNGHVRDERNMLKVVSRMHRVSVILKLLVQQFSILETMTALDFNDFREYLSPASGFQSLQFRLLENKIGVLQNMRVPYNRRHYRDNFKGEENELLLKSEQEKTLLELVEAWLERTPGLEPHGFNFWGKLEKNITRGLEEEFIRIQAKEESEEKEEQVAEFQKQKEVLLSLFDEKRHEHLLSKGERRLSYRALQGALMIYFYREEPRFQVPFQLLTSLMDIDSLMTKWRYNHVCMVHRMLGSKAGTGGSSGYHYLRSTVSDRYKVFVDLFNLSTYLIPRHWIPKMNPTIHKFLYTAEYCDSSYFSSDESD
Outline: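 Recombinant human TDO (50 nM) preincubated with compound 60 min at room temperature in 100 mM NaH2PO4 pH 7.0, 0.02% Tween-20, with ascorbic acid. Reaction then run 15 min with 200 μM L-tryptophan (final), 0.3% DMSO. NFK product detected by NFK Green fluorescence after 3 h at 37° C; IC50 derived.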

[1] = molecular target: T2, TDO in SW48 colorectal carcinoma cells (Homo sapiens, UniProt P48775); experiment: Cell-based assay for TDO in SW48 colorectal carcinoma cells (NFK GreenScreen); details: 18 hours with L-tryptophan, read-out: IC50 on TDO in cells
T2 construct: Endogenous expression of TDO has been determined in a variety of cancer cell lines; host or cells: SW48 colorectal carcinoma cells
T2 sequence (P48775 whole entry): as above

CYP2D6 = CYP2D6 (Homo sapiens, UniProt P10635); experiment: P450-Glo CYP2D6 Luc-IP assay
CYP2D6, sequence (P10635 whole entry): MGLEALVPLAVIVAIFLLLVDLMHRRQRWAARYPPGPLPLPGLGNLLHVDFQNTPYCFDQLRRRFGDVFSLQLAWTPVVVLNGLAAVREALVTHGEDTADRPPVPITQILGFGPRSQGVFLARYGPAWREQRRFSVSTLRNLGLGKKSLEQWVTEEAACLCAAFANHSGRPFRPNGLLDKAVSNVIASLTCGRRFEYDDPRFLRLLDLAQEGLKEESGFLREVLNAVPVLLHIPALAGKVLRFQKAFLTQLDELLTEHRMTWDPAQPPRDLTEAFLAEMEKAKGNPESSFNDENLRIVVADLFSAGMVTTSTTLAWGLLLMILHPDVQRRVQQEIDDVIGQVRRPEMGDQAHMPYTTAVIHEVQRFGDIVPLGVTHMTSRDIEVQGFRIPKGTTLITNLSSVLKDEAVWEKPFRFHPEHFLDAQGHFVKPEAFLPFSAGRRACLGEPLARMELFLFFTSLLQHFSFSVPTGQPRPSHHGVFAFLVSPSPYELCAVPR

CYP3A4 = CYP3A4 (Homo sapiens, UniProt P08684); experiment: P450-Glo CYP3A4 luciferin isopropylacetal (Luc-IP) assay
CYP3A4, sequence (P08684 whole entry): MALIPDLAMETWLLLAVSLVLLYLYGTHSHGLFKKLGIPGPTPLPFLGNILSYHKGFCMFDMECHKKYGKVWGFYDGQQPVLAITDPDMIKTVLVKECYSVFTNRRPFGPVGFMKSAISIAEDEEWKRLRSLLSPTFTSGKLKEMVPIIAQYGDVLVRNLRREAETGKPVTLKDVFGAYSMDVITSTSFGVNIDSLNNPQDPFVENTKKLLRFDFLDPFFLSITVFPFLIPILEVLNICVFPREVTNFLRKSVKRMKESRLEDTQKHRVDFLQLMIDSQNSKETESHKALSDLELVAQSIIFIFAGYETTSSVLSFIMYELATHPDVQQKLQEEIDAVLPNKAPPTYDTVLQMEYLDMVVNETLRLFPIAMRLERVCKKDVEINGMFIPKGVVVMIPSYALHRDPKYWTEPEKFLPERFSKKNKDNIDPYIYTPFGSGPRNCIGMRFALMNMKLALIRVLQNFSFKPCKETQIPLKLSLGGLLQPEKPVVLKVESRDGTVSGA
Excerpt: To determine the inhibitory potency of compounds on CYP3A4 enzyme, the P450-Glo CYP3A4 luciferin isopropylacetal (Luc-IP) assay was used (Promega, Madison, Wis., USA, Cat. No. V9920). The assay makes use of a luminogenic isopropylacetal (IPA) substrate that is a derivative from beetle luciferin, a substrate of luciferase enzymes. The IPA substrate is converted by CYP3A4 to luciferin, which in turn reacts with luciferase to produce an amount of light that is directly proportional to the activity of CYP3A4. Compounds were serially diluted in DMSO and finally in 400 mM K2HPO4, pH 7.4. 5 μl of compound solution and 5 μl of CYP3A4/substrate solution were combined in the well of a white 384-well Optiplate (Perkin Elmer). The DMSO concentration in the assay was 0.1%. After incubation for 10 minutes at room temperature in the dark, 10 μl of NADPH regeneration system was added and incubation was continued for 10 min. Then, 20 μl of Luciferin Detection Reagent was added to stop the reaction, and incubation was continued for another 20 min. Luminescence was measured on an Envision multimode reader and IC50 values were calculated using XLfit™. […] Instead of in a 96-well plate, the assay was performed in 384-well white Perkin Elmer Optiplate (cat. no. 6007290).

Row | IC50 (Recombinant TDO) [µM] | IC50 [1] | IC50 (CYP2D6) [µM] | IC50 (CYP3A4) [µM] | SMILES
1 | < 1 | ≤ 0.5 µM and 0.2 to 0.5 µM | > 10 | > 10 | O=C(N[C@H]1CCC[C@@H]1O)c1ccc(-c2c[nH]c3cc(F)ccc23)cc1 [Example 87, 4-(6-Fluoro-1H-indol-3-yl)-N-[(1S,2S)-2-hydroxycyclopentyl]benzamide]
2 | 1 to 5 | ≤ 0.5 µM and 0.2 to 0.5 µM | > 10 | > 10 | O=C(Nc1ccc(-c2c[nH]c3cc(F)ccc23)cc1)C1[C@H]2COC[C@@H]12 (stereo partly drawn) [Example 100, (1R,5S)—N-[4-(6-fluoro-1H-indol-3-yl)phenyl]-3-oxabicyclo[3.1.0]hexane-6-carboxamide]
3 | < 1 | ≤ 0.5 µM and 0.2 to 0.5 µM | > 10 | 5 to 10 | O=C(CC1CNCCO1)Nc1ccc(-c2c[nH]c3cc(F)ccc23)cc1 (stereo not shown) [Example 102, N-[4-(6-fluoro-1H-indol-3-yl)phenyl]-2-morpholin-2-yl-acetamide]
4 | < 1 | ≤ 0.5 µM and 0.2 to 0.5 µM | > 10 | > 10 | N[C@H]1CCC[C@@H](C(=O)Nc2ccc(-c3c[nH]c4cc(F)ccc34)cc2)C1 [Example 103, (1R,3S)-3-amino-N-[4-(6-fluoro-1H-indol-3-yl)phenyl]cyclohexanecarboxamide]
5 | < 1 | ≤ 0.5 µM and 0.2 to 0.5 µM | > 10 | 5 to 10 | O=C(Nc1ccc(-c2c[nH]c3cc(F)ccc23)cc1)C1C2CNCC21 (stereo not shown) [Example 104, N-[4-(6-fluoro-1H-indol-3-yl)phenyl]-3-azabicyclo[3.1.0]hexane-6-carboxamide]
6 | < 1 | ≤ 0.5 µM and 0.2 to 0.5 µM | > 10 | > 10 | N[C@@H]1CCC[C@H](C(=O)Nc2ccc(-c3c[nH]c4cc(F)ccc34)cc2)C1 [Example 105, (1S,3R)-3-amino-N-[4-(6-fluoro-1H-indol-3-yl)phenyl]cyclohexanecarboxamide]
7 | < 1 | ≤ 0.5 µM and 0.2 to 0.5 µM | > 10 | 5 to 10 | N[C@H]1CC[C@@H](C(=O)Nc2ccc(-c3c[nH]c4cc(F)ccc34)cc2)C1 [Example 106, (1R,3S)-3-amino-N-[4-(6-fluoro-1H-indol-3-yl)phenyl]cyclopentanecarboxamide]

Further lines, the compound ahead of its results:

Row | SMILES | IC50 (Recombinant TDO) [µM] | IC50 [1] | IC50 (CYP2D6) [µM] | IC50 (CYP3A4) [µM]
8 | O=C(NC1CCCNCC1)c1ccc(-c2c[nH]c3cc(F)ccc23)cc1 (stereo not shown) [Example 83, N-(azepan-4-yl)-4-(6-fluoro-1H-indol-3-yl)benzamide] | < 1 | ≤ 0.2 µM | > 10 | > 10
9 | O=C(NC[C@@H]1CCCN1)c1ccc(-c2c[nH]c3cc(F)ccc23)cc1 [Example 84, 4-(6-Fluoro-1H-indol-3-yl)-N-[[(2S)-pyrrolidin-2-yl]methyl]benzamide] | < 1 | ≤ 0.2 µM | > 10 | > 10
10 | O=C(NN1CCOCC1)c1ccc(-c2c[nH]c3cc(F)ccc23)cc1 [Example 93, 4-(6-Fluoro-1H-indol-3-yl)-N-morpholino-benzamide] | < 1 | ≤ 0.5 µM and 0.2 to 0.5 µM | > 10 | > 10
11 | O=C(NC[C@H]1CCCNC1)c1ccc(-c2c[nH]c3cc(F)ccc23)cc1 [Example 94, 4-(6-Fluoro-1H-indol-3-yl)-N-[[(3S)-3-piperidyl]methyl]benzamide] | < 1 | ≤ 0.5 µM and 0.2 to 0.5 µM | > 10 | 5 to 10
12 | O=C(NC[C@@H]1CCNC1)c1ccc(-c2c[nH]c3cc(F)ccc23)cc1 [Example 95, 4-(6-Fluoro-1H-indol-3-yl)-N-[[(3R)-pyrrolidin-3-yl]methyl]benzamide] | < 1 | ≤ 0.5 µM and 0.2 to 0.5 µM | > 10 | > 10
13 | O=C(Nc1ccc(-c2c[nH]c3cc(F)ccc23)cc1)C1CC12CCNCC2 (stereo not shown) [Example 97, N-[4-(6-Fluoro-1H-indol-3-yl)phenyl]-6-azaspiro[2.5]octane-2-carboxamide] | < 1 | ≤ 0.5 µM and 0.2 to 0.5 µM | > 10 | > 10
